In patent publication US9428460B2, “N-[4-(quinolin-4-yloxy)cyclohexyl(methyl)](hetero)arylcarboxamides as androgen receptor antagonists, production and use thereof as medicinal products” (BAYER PHARMA AKTIENGESELLSCHAFT, priority 2012, dated 2016):

How the values were obtained:
Assay type in all cases: cell-based
[1] = molecular target: human androgen receptor (full length, wild-type form) (Homo sapiens (Human), UniProt P10275); test: Transactivation assay for the wild-type androgen receptor (PC-3 cells, MMTV-luciferase reporter); conditions: in the presence of R1881, 16 hours
Chain of human androgen receptor (full length, wild-type form) (P10275 whole entry): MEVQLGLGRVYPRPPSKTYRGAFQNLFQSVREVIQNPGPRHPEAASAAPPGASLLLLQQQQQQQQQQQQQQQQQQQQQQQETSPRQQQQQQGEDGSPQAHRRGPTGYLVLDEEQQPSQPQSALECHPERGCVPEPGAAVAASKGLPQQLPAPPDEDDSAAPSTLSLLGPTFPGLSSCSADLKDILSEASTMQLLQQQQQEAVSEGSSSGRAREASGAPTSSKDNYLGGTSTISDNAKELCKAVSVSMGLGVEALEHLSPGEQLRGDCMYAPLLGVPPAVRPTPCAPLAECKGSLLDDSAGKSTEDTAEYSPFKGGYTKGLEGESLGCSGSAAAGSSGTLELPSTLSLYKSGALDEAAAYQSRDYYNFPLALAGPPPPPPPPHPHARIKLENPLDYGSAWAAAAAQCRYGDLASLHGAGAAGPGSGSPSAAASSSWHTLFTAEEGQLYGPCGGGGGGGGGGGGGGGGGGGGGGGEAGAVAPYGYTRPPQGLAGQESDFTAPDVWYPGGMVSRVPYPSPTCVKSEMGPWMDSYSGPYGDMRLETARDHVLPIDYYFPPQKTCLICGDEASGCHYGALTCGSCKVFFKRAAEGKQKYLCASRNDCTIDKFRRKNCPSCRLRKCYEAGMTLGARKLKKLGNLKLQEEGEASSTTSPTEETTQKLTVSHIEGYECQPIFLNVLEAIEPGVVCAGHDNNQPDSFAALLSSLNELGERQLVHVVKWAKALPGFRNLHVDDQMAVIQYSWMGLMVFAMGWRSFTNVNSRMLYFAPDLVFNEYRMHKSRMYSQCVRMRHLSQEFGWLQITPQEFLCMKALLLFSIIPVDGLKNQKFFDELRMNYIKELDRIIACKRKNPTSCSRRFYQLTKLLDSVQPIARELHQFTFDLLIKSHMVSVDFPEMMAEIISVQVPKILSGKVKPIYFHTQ
Source text: For determining the androgen receptor-dependent transcription, a cellular assay system was used, consisting of PC-3 cells (Kaighn et al., Invest. Urol. 17: 16-23, 1979), which express the human androgen receptor stably and recombinantly (full length, wild-type form, see Swiss-Prot Acc. No. P10275, Entry Version 159, Sequence Version 2). In addition, these PC3 cells contain a stably integrated reporter gene plasmid, which is based on the commercially available plasmid pGL4.14 (#E6691, Promega Corporation, Madison, Wis., USA) and contains the luciferase gene from the American firefly (Photinus pyralis) under the control of the MMTV promoter (Cato et al., EMBO J. 6: 363-368, 1987). These cells were propagated in routine cell culture at 37° C. and 5% CO2 in a medium containing 90% RPMI 1640 (Invitrogen GmbH, Darmstadt, Germany), 100 U penicillin, 100 μg/ml streptomycin (Invitrogen), 4 mM L-glutamine (Invitrogen), 10% fetal calf serum (FCS Serum Gold, PAA Laboratories GmbH, Cölbe, Germany), 600 μg/ml Geneticin (G418-sulphate, Invitrogen) and 10 μg/ml puromycin (Sigma Aldrich GmbH, Germany).
For carrying out the transactivation assays, approx. 1000 cells per well were plated out in a 384-well cell culture plate in a medium that contained activated charcoal-treated calf serum (FCS Serum Gold, PAA Laboratories) at a concentration of 5% (v/v). The test substances were added in a concentration series from 5.12×10^−12 to 1×10^−5 M in the presence of […] R1881 (methyltrienolone). The test plates were incubated overnight at 37° C. and 5% CO2. After 16 hours, 15 μl of Steady Glo Lysis and Detection reagent (E2550, Promega Corporation, Madison, Wis., USA) was added per well and the luminescence was read in a Topcount Luminometer (PerkinElmer, Waltham, Mass., USA) for 4 seconds per well. The luminescence values obtained were normalized, wherein 100% corresponded to the effect of the unstimulated control (without R1881), and 0% corresponded to the effect of the stimulated control (R1881 plus DMSO instead of test substance). The IC50 value was determined by regression analysis based on a four-parameter equation (minimum, maximum, IC50, Hill coefficient; Y=Max+(Min−Max)/(1+(X/IC50)^Hill)).

[2] = molecular target: androgen receptor mutant W741C (Homo sapiens (Human), UniProt P10275, W742C); test: Transactivation assay for the androgen receptor mutant W741C (transfected PC-3 cells); conditions: in the presence of 1×10^−10 M R1881, 24 hours
Chain of androgen receptor mutant W741C (P10275 whole entry W742C): as the sequence (P10275 whole entry) above, with W742C counted along it
Protocol: PC-3 cells (Kaighn et al., Invest. Urol. 17: 16-23, 1979) were plated out at a density of 10000 cells per well of a 96-well cell culture plate in RMPI 1640 medium (F1235, Biochrom AG, Berlin, Germany), which contained activated charcoal-treated calf serum (FCS Serum Gold, PAA Laboratories) at a concentration of 5% (v/v). On the next day the cells were transiently transfected with the pSG5-vector (#216201 Stratagene), which contained the sequence of the androgen receptor mutant W741C (Haapala et al., Lab Invest. 81(12): 1647-51, 2001), and with a reporter plasmid based on pGL4.14 (#E6691, Promega) with the luciferase-gene (from Photinus pyralis) under the control of the MMTV promoter (Cato et al., EMBO J. 6: 363-8, 1987). The cells were treated with the test substances in concentrations from 1×10^−8 to 1×10^−10 M in the presence of 1×10^−10 M R1881 and were incubated overnight at 37° C. and 5% CO2. After 24 hours, 100 μl of Steady Glo Lysis and Detection reagent (E2550, Promega) was added per well and the luminescence was read in a Victor3 Luminometer (PerkinElmer) for 1 second per well. The luminescence values obtained were normalized, wherein 100% corresponded to the effect of the unstimulated control (without R1881), and 0% corresponded to the effect of the stimulated control (R1881 plus DMSO instead of test substance). The IC50 value was determined by regression analysis based on a four-parameter equation (minimum, maximum, IC50, Hill coefficient; Y=Max+(Min−Max)/(1+(X/IC50)^Hill)).

[3] = molecular target: androgen receptor mutant E709Y (Homo sapiens (Human), UniProt P10275, E710Y); test: Transactivation assay for the androgen receptor mutant E709Y (transfected PC-3 cells); conditions: in the presence of 1×10^−10 M R1881, 24 hours
Chain of androgen receptor mutant E709Y (P10275 whole entry E710Y): as the sequence (P10275 whole entry) above, with E710Y counted along it
Protocol: PC-3 cells (Kaighn et al., Invest. Urol. 17: 16-23, 1979) were plated out at a density of 10000 cells per well of a 96-well cell culture plate in RMPI 1640 medium (F1235, Biochrom AG Berlin, Germany) that contained activated charcoal-treated calf serum (FCS Serum Gold, PAA Laboratories) at a concentration of 5% (v/v). On the next day the cells were transiently transfected with the pSG5-vector (#216201 Stratagene), which contained the sequence of the androgen receptor mutant E709Y (Georget et al., Mol. Endocrinol. 20(4): 724-734, 2006), and with the MMTV-luciferase plasmid (see above, transactivation assay for the androgen receptor mutant W741C). The cells were treated with the test substances in concentrations from 1×10^−8 to 1×10^−10 M in the presence of 1×10^−10 M R1881 and were incubated overnight at 37° C. and 5% CO2. After 24 hours, 100 μl of Steady Glo Lysis and Detection reagent (E2550, Promega) was added per well and the luminescence was read in a Victor3 Luminometer (PerkinElmer) for 1 second per well. The luminescence values obtained were normalized, wherein 100% corresponded to the effect of the unstimulated control (without R1881), and 0% corresponded to the effect of the stimulated control (R1881 plus DMSO instead of test substance). The IC50 value was determined by regression analysis based on a four-parameter equation (minimum, maximum, IC50, Hill coefficient; Y=Max+(Min−Max)/(1+(X/IC50)^Hill)).

[4] = tested on: LAPC-4 cells; test: Proliferation assay with LAPC-4 cells; conditions: Homo sapiens, LAPC4, 168 h; in the presence of 1×10^−9 M R1881, seven days, AlamarBlue; read-out: IC50 LAPC-4 cell proliferation
Protocol: LAPC-4 cells (Klein et al., Nat Med. 3(4): 402-8, 1997) were plated out at a density of 4000 cells per well of a 96-well cell culture plate in RMPI 1640 medium (F1275, Biochrom AG) that contained activated charcoal-treated calf serum (FCS Serum Gold, PAA Laboratories) at a concentration of 10% (v/v). On the next day the cells were treated with the test substances in concentrations from 1×10^−8 to 1×10^−10 M in the presence of 1×10^−9 M R1881. Cell proliferation was determined seven days later after incubation for 2 hours with AlamarBlue (DAL1100, Invitrogen) (Nakayama et al., J Immunol Methods, 204(2): 205-8, 1997). The fluorescence values obtained were normalized, wherein 100% corresponded to the effect of the unstimulated control (without R1881), and 0% corresponded to the effect of the stimulated control (R1881 plus DMSO instead of test substance). The IC50 value was determined by regression analysis based on a four-parameter equation (minimum, maximum, IC50, Hill coefficient; Y=Max+(Min−Max)/(1+(X/IC50)^Hill)).

[5] = tested on: LNCaP cells; test: Proliferation assay with LNCaP cells; conditions: Homo sapiens, 168 h, in the presence of 1×10^−10 M R1881, seven days, AlamarBlue, read-out: IC50 LNCaP cell proliferation
Protocol: LNCaP cells (Horoszewicz et al., in “Models for Prostate Cancer” (ed. G. P. Murphy), Alan R. Liss, New York 1981, p. 115-132; Horoszewicz et al., Cancer Res. 43: 1809-1818, 1983) were plated out at a density of 2000 cells per well of a 96-well cell culture plate in RMPI 1640 medium (F1275, Biochrom AG), which contained activated charcoal-treated calf serum (FCS Serum Gold, PAA Laboratories) at a concentration of 5% (v/v). Three days later the cells were treated with the test substances in concentrations from 1×10^−8 to 1×10^−10 M in the presence of 1×10^−10 M R1881. Cell proliferation was determined seven days later after incubation for 2 hours with AlamarBlue (DAL1100, Invitrogen) (Nakayama et al., J Immunol Methods, 204(2): 205-8, 1997). The fluorescence values obtained were normalized, wherein 100% corresponded to the effect of the unstimulated control (without R1881), and 0% corresponded to the effect of the stimulated control (R1881 plus DMSO instead of test substance). The IC50 value was determined by regression analysis based on a four-parameter equation (minimum, maximum, IC50, Hill coefficient; Y=Max+(Min−Max)/(1+(X/IC50)^Hill)).

| IC50 [1] [nM] | IC50 [2] [nM] | IC50 [3] [nM] | IC50 [5] [nM] | SMILES | IC50 [4] [nM] |
| --- | --- | --- | --- | --- | --- |
| 194 | 220 | 175 | – | O=C(NC[C@H]1CC[C@H](Oc2ccnc3ccccc23)CC1)c1cccc(F)c1 [Example 10, N-{[trans-4-(4-quinolyloxy)cyclohexyl]methyl}-3-fluorobenzamide] | 130 |
| 92 | 72 | 14 | – | N#Cc1cccc2c(O[C@H]3CC[C@H](NC(=O)c4ccc(F)c(F)c4)CC3)ccnc12 [Example 24, N-{trans-4-[(8-cyanoquinolin-4-yl)oxy]cyclohexyl}-3,4-difluorobenzamide] | – |
| 32 | – | – | 110 | O=C(N[C@H]1CC[C@H](Oc2ccnc3ccccc23)CC1)c1cccc(F)c1 [Example 19, N-{trans-4-(4-quinolyloxy)cyclohexyl}-3-fluorobenzamide] | 48 |
| 105 | 72 | 56 | – | O=C(NC[C@H]1CC[C@H](Oc2ccnc3ccccc23)CC1)c1ccc(F)c(F)c1 [Example 9, N-{[trans-4-(4-quinolyloxy)cyclohexyl]methyl}-3,4-difluorobenzamide] | 45 |
| 210 | – | – | 260 | Cc1cc(C(=O)NC[C@H]2CC[C@H](Oc3ccnc4ccccc34)CC2)no1 [Example 11, N-{[trans-4-(4-quinolyloxy)cyclohexyl]methyl}-5-methylisoxazole-3-carboxamide] | 118 |
